Test results reported in publication PMC10982501, “Synthesis and biological evaluation of novel benzothiazole derivatives as potential anticancer and antiinflammatory agents” (Frontiers in Chemistry, 2024).

What was measured:
H1299 cells = experiment: MTT cell proliferation assay, H1299; type: cell-based, human; conditions: Homo sapiens, NCI-H1299, 48 h, 10 μM, read-out: H1299 cells inhibition rate
Protocol: (§1) Beas-2b, A431, A549 and H1299 cells were cultured in 96-well plates (5 × 10^3 cells/well) for 16 h, respectively. Subsequently, positive compound 4i and 25 newly synthesized compounds were added at a final concentration of 10 μM or gradient concentrations (0.01, 0.1, 0.5, 1, 5 and 10 μM), co-incubated with the cells for 48 h. MTT (M8180, Solarbio) solutions (5 mg/mL) were then added and incubated for 4 h in the dark. Then, formazan crystals were dissolved with DMSO (D8371, Solarbio), followed by shaking on a shaker (DRAGONLAB, China) for 10 min. Finally, absorbance at 490 nm wavelength for each well was measured with Microplate reader (Molecular Devices, United States) ([Tang et al., 2020]; [Lee et al., 2021]). The results are expressed as mean ± SD from three independent experiments. Cells inhibition rates or IC50 values were calculated using GraphPad Prism 9.5.0.

A431 cells = experiment: MTT cell proliferation assay, A431; type: cell-based, human; conditions: Homo sapiens, A-431, 48 h, 10 μM, read-out: A431 cells inhibition rate
Protocol: as §1

[1] = Oil-water partition coefficient (log P) measurement; type: physicochemical; conditions: n-octanol/water, room temperature
Protocol: The partition coefficient between n-octanol and water (log Po/w) is the classical descriptor for Lipophilicity ([Daina et al., 2017]). The test methodology followed previously published protocols ([Wang et al., 2021]). At room temperature, two large Erlenmeyer flasks were taken and filled with n-octanol and water, respectively. The flasks were placed in a constant temperature shaker at 150 rpm for 24 h to saturate the solvents. The mixtures were then transferred to separating funnels under normal pressure to obtain water-saturated n-octanol and n-octanol-saturated water for subsequent use. The target compound (2 mg) was accurately weighed and placed in a 2 mL brown volumetric flask. Anhydrous methanol was added to ultrasonically dissolve the compound, and the mixture was diluted to volume and thoroughly shaken to prepare a 1 mg/mL stock solution. The stock solution was further diluted to obtain 1, 1.5, 2, 2.5, 5 and 10 μg/mL reference solutions for construction of a standard curve using a UV-visible spectrophotometer. An excess amount of the analyte was dissolved in water-saturated n-octanol, and the mixture was shaken at 150 rpm for 24 h at constant temperature to obtain a saturated solution. The saturated solution was allowed to stand, centrifuged, and 1 mL of the supernatant was transferred to a 4 mL centrifuge tube. N-octanol saturated water (1 mL) was added, and the mixture was shaken at 150 rpm for 24 h at constant temperature. After standing for 8 h, the mixture was centrifuged. Appropriate amounts of the n-octanol phase before and after equilibration were diluted with methanol, and concentrations were determined from the standard curve to obtain C0 and C1. The concentration in the n-octanol saturated aqueous phase, Cw, was calculated as Cw = C0 - C1. Thus, log Po/w = […].

Beas-2b cells = experiment: MTT cell proliferation and toxicity assay, Beas-2b; type: cell-based, human; conditions: Homo sapiens, BEAS-2B, 48 h, read-out: Beas-2b cells inhibition rate
Protocol: as §1

A549 cells = experiment: MTT cell proliferation assay, A549; type: cell-based, human; conditions: Homo sapiens, A549, 48 h, 10 μM, read-out: A549 cells inhibition rate
Protocol: as §1

SMILES	logP [1]	inhibition at 10 µM (H1299 cells) [%]	inhibition at 10 µM (A431 cells) [%]	inhibition at 10 µM (Beas-2b cells) [%]	inhibition at 10 µM (A549 cells) [%]
O=C1c2ccccc2C(=O)N1CCCOc1ccccc1-c1nc2ccccc2s1 [A3, 2-(3-(2-(benzo[d]thiazol-2-yl)phenoxy)propyl)isoindoline-1,3-dione]	3.63 ± 0.16	30.9 ± 0.77	34.2 ± 1.15	5.25 ± 0.39	28.5 ± 2.21
Fc1ccc2nc(NCCc3ccccc3)sc2c1 [B1, 6-fluoro-N-phenethylbenzo[d]thiazol-2-amine]	3.47 ± 0.27	26.3 ± 0.91	21.1 ± 2.03	23.1 ± 1.52	18.3 ± 0.93
Fc1ccc2nc(NCc3c(Cl)cccc3Cl)sc2c1 [B2, N-(2,6-dichlorobenzyl)-6-fluorobenzo[d]thiazol-2-amine]	4.25 ± 0.16	31.3 ± 1.14	27.5 ± 2.42	18.6 ± 1.67	30.2 ± 2.13
COc1ccc(CNc2nc3ccc(F)cc3s2)cc1OC [B3, N-(3,4-dimethoxybenzyl)-6-fluorobenzo[d]thiazol-2-amine]	2.56 ± 0.12	44.6 ± 1.75	32.4 ± 2.92	25.4 ± 2.01	22.4 ± 1.34
O=[N+]([O-])c1ccc(CNc2nc3ccc(F)cc3s2)cc1 [B4, 6-fluoro-N-(4-nitrobenzyl)benzo[d]thiazol-2-amine]	2.67 ± 0.25	25 ± 1.62	24.3 ± 1.87	21.4 ± 2.21	19.6 ± 1.32

Further lines, with some results ahead:

logP [1]	SMILES	inhibition at 10 µM (H1299 cells) [%]	inhibition at 10 µM (A431 cells) [%]	inhibition at 10 µM (Beas-2b cells) [%]	inhibition at 10 µM (A549 cells) [%]
3.51 ± 0.19	O=[N+]([O-])c1ccccc1COc1ccccc1-c1nc2ccccc2s1 [A2, 2-(2-((2-nitrobenzyl)oxy)phenyl)benzo[d]thiazole]	42.4 ± 1.26	35.8 ± 2.03	17.3 ± 3.26	33.1 ± 2.34
3.74 ± 0.35	O=[N+]([O-])c1ccc(COc2ccccc2-c2nc3ccccc3s2)cc1 [A4, 2-(2-((4-nitrobenzyl)oxy)phenyl)benzo[d]thiazole]	39.4 ± 1.2	35.8 ± 1.02	10.3 ± 0.64	33.3 ± 1.36
4.51 ± 0.24	Clc1cccc(COc2ccccc2-c2nc3ccccc3s2)c1 [A5, 2-(2-((3-chlorobenzyl)oxy)phenyl)benzo[d]thiazol]	35.3 ± 2.24	45.7 ± 0.87	18.2 ± 2.23	47.6 ± 1.24
4.72 ± 0.28	Cc1ccc(COc2ccccc2-c2nc3ccccc3s2)cc1 [A6, 2-(2-((4-methylbenzyl)oxy)phenyl)benzo[d]thiazole]	33.9 ± 0.68	27.7 ± 1.62	15.1 ± 3.28	20.7 ± 2.31
3.95 ± 0.15	c1ccc(COc2ccccc2-c2nc3ccccc3s2)cc1 [A7, 2-(2-(benzyloxy)phenyl)benzo[d]thiazole]	26.5 ± 1.11	15.3 ± 2.21	11.4 ± 2.65	12.2 ± 3.42
3.44 ± 0.22	N#Cc1ccc(COc2ccccc2-c2nc3ccccc3s2)cc1 [A8, 4-((2-(benzo[d]thiazol-2-yl)phenoxy)methyl)benzonitrile]	37.3 ± 2.3	28.6 ± 1.24	14.2 ± 3.65	24.4 ± 1.22
